Source: PMC7822874, “Chemoprotective antimalarials identified through quantitative high-throughput screening of Plasmodium blood and liver stage parasites” (Scientific Reports, 2021)
Where two headings read alike, the source gives them in different places.

Legend:
Type in all cases: cell-based, Plasmodium falciparum
[1] = test system: P. falciparum Dd2 (clone B2) asexual blood stage parasites; assay: P. falciparum Dd2 asexual blood stage SYBR Green-I 72 h proliferation assay (qHTS); details: Plasmodium falciparum, DD2, Dd2 parental; Hill fit, averaged from three independent replicates; top concentration 29 µM; read-out: Average AC50 (Log[M]), Dd2 (converted)
[2] = test system: P. falciparum Dd2 Cytb A122D; assay: SYBR Green ABS proliferation assay, NCGC00473217 selected clone F12; details: Plasmodium falciparum
Procedure: (§1) As resistance selection studies implicated the parasite cytochrome bc1 complex in mediating reduced parasite susceptibility to both NCGC00473217 and NCGC00374598, we leveraged these drug-selected parasites to test for altered drug response to a panel of antimalarial compounds.
(§2) The P. falciparum parasite Dd2 line was cultured in vitro using standard conditions. […] Tissue culture flasks and assay plates were incubated at 37 °C under a gas mixture of 5% CO2, 5% O2 and 90% N2. […] Significant differences were assessed using two-sided Student’s t-tests. All HTS assays were stopped and read at 72 h. Percent response values represent relative growth as judged by SYBR Green-I fluorescence intensity values normalized to controls.
(§3) Fresh uninfected RBCs (0.5% hematocrit) were added on day 7 and media was changed every other day. […] Resistant parasites were maintained under drug media at a volume of 50 mL until a high parasitemia (> 5%) was achieved. Aliquots of the bulk resistant cultures were frozen in cryovials before cloning by limiting dilution in 96-well plates (seeded at 0.25 or 0.5 parasites/well)[70]. After 3 weeks of cloning, we screened for positive wells by flow cytometry with SYBR Green-stained cells. […] Parasites were harvested by saponin lysis at the trophozoite stage and genomic DNA was extracted using the QIAamp DNA Blood Midi Kit (Qiagen, Germantown, MD)[71].

[3] = test system: P. falciparum Dd2 Cytb V259L; assay: SYBR Green ABS proliferation assay, NCGC00473217 selected clone F06; details: Plasmodium falciparum
Procedure: as §1, §2, §3

[4] = test system: P. falciparum Dd2 Cytb G131S; assay: SYBR Green ABS proliferation assay, NCGC00374598 selected clone C11; details: Plasmodium falciparum
Procedure: as §1, §2, §3

[5] = test system: P. falciparum Dd2 Cytb F123L; assay: SYBR Green ABS proliferation assay, NCGC00473217 selected clone G08; details: Plasmodium falciparum
Procedure: as §1, §2, §3

[6] = DD2, […], averaged from three independent replicates, top concentration 29 µM, read-out: Average AC50 (Log[M]), NCGC00473217 clone F12 (Cytb A122D) (converted)
[7] = DD2, […], averaged from three independent replicates, top concentration 29 µM, read-out: Average AC50 (Log[M]), NCGC00473217 clone F06 (Cytb V259L) (converted)
[8] = DD2, […], averaged from three independent replicates, top concentration 29 µM, read-out: Average AC50 (Log[M]), NCGC00374598 clone C11 (Cytb G131S) (converted)
[9] = DD2, […], averaged from three independent replicates, top concentration 29 µM, read-out: Average AC50 (Log[M]), NCGC00473217 clone G08 (Cytb F123L) (converted)
[10] = DD2, cytochrome b mutant line, fifth value triple, c15, […], read-out: log AC50, mean (converted)
[11] = DD2, cytochrome b mutant line, second value triple, c6, […], read-out: log AC50, mean (converted)
[12] = DD2, cytochrome b mutant line, fourth value triple, c12, […], read-out: log AC50, mean (converted)
[13] = DD2, cytochrome b mutant line, third value triple, c9, […], read-out: log AC50, mean (converted)

SMILES | AC50 [1] [M] | AC50 [2, 6] [M] | AC50 [3, 7] [M] | AC50 [4, 8] [M] | AC50 [5, 9] [M] | also measured
CCCN1C(CC(C)C)=N[S+](=O)([O-])c2cc(NC(=O)C3CCCO3)ccc21 (stereo not drawn) [NCGC00521155-01] | 1.26e-05 | 8.93e-06 | 5.97e-06 |  |  | 
CCCN1C(CC(C)C)=N[S+](=O)([O-])c2cc(NC(=O)c3ccsc3)ccc21 [NCGC00521157-01] | 2e-06 | 8.93e-07 | 1.34e-06 | 2.08e-06 |  | 
CCCN1C(CC(C)C)=N[S+](=O)([O-])c2cc(NC(=O)c3ccc(-c4ccccc4)cc3)ccc21 [NCGC00521159-01] | 8.93e-06 | 8.93e-06 | 7.1e-06 | 7.1e-06 |  | 
CCCN1C(CC(C)C)=N[S+](=O)([O-])c2cc(NC(=O)c3ccc(-c4ccccc4)o3)ccc21 [NCGC00521160-01] |  | 3.17e-06 | 6.32e-06 |  | 5.02e-06 | 
CCCN1C(CC(C)C)=N[S+](=O)([O-])c2cc(N[S+](=O)([O-])c3cccs3)ccc21 [NCGC00521163-01] | 1.78e-05 | 8.93e-06 | 1.59e-05 |  | 1.12e-05 | 
CCCN1C(CC(C)C)=N[S+](=O)([O-])c2cc(NC(=O)c3c(C)noc3C)ccc21 [NCGC00521866-01] | 1.78e-05 | 7.52e-06 |  | 1e-05 | 2.52e-06 | 
CCCN1C(CC(C)C)=N[S+](=O)([O-])c2cc(N[S+](=O)([O-])c3ccc(F)cc3)ccc21 [NCGC00521879-01] |  |  |  |  | 6.32e-07 | 
CCCN1C(CC(C)C)=N[S+](=O)([O-])c2cc(NC(=O)c3cc4ccccc4o3)ccc21 [NCGC00521880-01] |  | 3.99e-06 | 4.48e-07 |  | 1.34e-06 | 
CCCN1C(C)=N[S+](=O)([O-])c2cc(NC(=O)c3ccccc3)ccc21 [NCGC00522605-01] | 1e-05 |  |  | 2e-06 | 3.56e-07 | 
CCCN1C(CC(C)C)=N[S+](=O)([O-])c2cc(NC(=O)c3ccc(OC)cc3)ccc21 [NCGC00531533-02] | 2.52e-06 |  | 1e-06 | 1.47e-06 | 1e-06 | 
CCCN1C(CC(C)C)=N[S+](=O)([O-])c2cc(NC(=O)c3ccc(OC(F)(F)F)cc3)ccc21 [NCGC00531538-01] | 1.26e-06 | 1.59e-06 |  |  | 1.78e-05 | 
CCCN1C(CC(C)C)=N[S+](=O)([O-])c2cc(NC(=O)c3ccc(F)c(F)c3)ccc21 [NCGC00531540-01] | 5.22e-06 | 3.99e-07 |  | 7.96e-07 | 7.1e-07 | 
CCCN1C(CC(C)C)=N[S+](=O)([O-])c2cc(NC(=O)c3ccc(C(F)(F)F)cc3)ccc21 [NCGC00531759-01] |  | 8.93e-10 | 8.93e-07 | 2.52e-06 |  | 
CC(C)CC1=N[S+](=O)([O-])c2cc(NC(=O)c3cccs3)ccc2N1 [NCGC00532401-01] |  |  |  |  |  | AC50 [5, 10]: 2.52e-09 M; AC50 [4, 11]: 2.82e-07 M; AC50 [2, 12]: 7.1e-06 M
CC(C)CC1=N[S+](=O)([O-])c2cc(NC(=O)c3ccc(F)cc3)ccc2N1 [NCGC00532402-01] |  |  |  |  |  | AC50 [2, 12]: 1.12e-06 M; AC50 [3, 13]: 3.99e-07 M
O=C(Nc1ccc2c(c1)[S+](=O)([O-])N=C1CCCN12)c1cccs1 [NCGC00537660-01] |  |  |  |  |  | AC50 [5, 10]: 2e-09 M
O=C(Nc1ccc2c(c1)[S+](=O)([O-])N=C1CCCN12)c1ccc(F)cc1 [NCGC00537667-01] |  |  |  |  |  | AC50 [4, 11]: 1.78e-05 M; AC50 [2, 12]: 1e-05 M; AC50 [3, 13]: 1.59e-05 M
CC(C)CC1=N[S+](=O)([O-])c2cc(NC(=O)c3ccc(F)s3)ccc2N1C [NCGC00651708-01] |  |  |  |  |  | AC50 [4, 11]: 2.99e-06 M; AC50 [2, 12]: 2.11e-06 M
CN1C(CC2CCCCC2)=N[S+](=O)([O-])c2cc(NC(=O)c3ccc(F)s3)ccc21 [NCGC00651709-01] |  |  |  |  |  | AC50 [5, 10]: 1.68e-05 M; AC50 [4, 11]: 5.96e-06 M; AC50 [2, 12]: 5.31e-06 M
